From patent US20230295234A1, “ANTIMICROBIAL PEPTIDOMIMETICS” (SPEXIS AG, priority 2020, published 2023)
Like-named read-outs stand apart in the source and are kept apart here. Bridge positions count the residues as written; N and C are the ends. Square brackets hold non-standard residues; d marks the D form. Peptide text beside a SMILES is read from it. * marks the point of attachment. Pro(4R-NH2) = N[C@H]1CN[C@H](C(=O)O)C1; X2 = N=C(N)N1C[C@H](O)C[C@H]1C(=O)*; Hyp = O=C(O)[C@@H]1C[C@@H](O)CN1; Gly(N(CH2)3NH2) = NCCCNCC(=O)O; Pen = CC(C)(S)[C@H](N)C(=O)O; dDab = NCC[C@@H](N)C(=O)O; Dab = NCC[C@H](N)C(=O)O

Tests used:
[1] = tested on: Escherichia coli ATCC 25922; settings: ATCC 25922
Method in brief: (§1)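 Activity is measured against peptides serially diluted two-fold in water with 0.002% final Polysorbate 80. The cells are in cation-adjusted MHII broth at roughly 5×10^5 CFU/mL, prepared from a 0.5 McFarland suspension in 0.85% NaCl.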

[2] = tested on: Escherichia coli MCR-1 Af 45
Method in brief: as §1

[3] = tested on: Klebsiella pneumoniae SSI3010; settings: SSI3010
Method in brief: as §1

[4] = tested on: human red blood cells (hRBC); test: Hemolysis of human red blood cells; format: cell-based; settings: red cells of human, 1 h
Method in brief: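 PBS-washed human red blood cells (20% v/v) were incubated with peptide at 200 μg/mL for 1 h at 37 °C with shaking. Supernatant OD was read at 540 nm after 8-fold dilution. Hemolysis is expressed as percent of the water control.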

[5] = Mueller-Hinton broth II, 18-20 hours at 35° C.

Row | Structure (SMILES) | Escherichia coli ATCC 25922 MIC [1] [µg/mL] | Escherichia coli MCR-1 Af 45 MIC [2, 5] [µg/mL] | Klebsiella pneumoniae SSI3010 MIC [3] [µg/mL] | Hemolysis at 0.2 g/L [4] [%] | Escherichia coli MCR-1 Af 45 MIC ([2]; MCR-1 Af 45) [µg/mL]
1 | CC[C@H](C)[C@H](NC(=O)[C@@H](NC(=O)[C@@H]1CCCN1C(=O)[C@@H](N)C(C)C)[C@@H](C)CC)C(=O)N[C@@H](Cc1ccc(O)cc1)C(=O)N[C@H]1CSSC[C@@H](C(=O)N[C@@H](CCN)C(=O)N[C@@H](CCCNC(=N)N)C(=O)N[C@@H](CC2CCCCC2)C(=O)O)NC(=O)[C@H](CCCCN)NC(=O)[C@@H](CCN)NC(=O)[C@H]([C@@H](C)O)NC(=O)[C@H](CCN)NC(=O)[C@H](CCCNC(=N)N)NC(=O)[C@H](CC(N)=O)NC1=O [Example 139] (HELM PEPTIDE1{V.P.I.I.Y.C.N.R.[Dab].T.[NCC[C@@H](N[*:1])C(=O)[*:2]].K.C.[Dab].R.[Cha]}$PEPTIDE1,PEPTIDE1,6:R3-13:R3$$$V2.0) | 0.0625 | 0.0625 | 0.125 | 0 | –
2 | CC[C@H](C)[C@H](NC(=O)[C@@H]1C[C@@H](O)CN1C(=O)[C@@H](N)C(C)C)C(=O)N[C@@H](CCCCN)C(=O)N[C@@H](Cc1ccc(O)cc1)C(=O)N[C@@H]1C(=O)N[C@@H](CC(N)=O)C(=O)N[C@@H](CCCNC(=N)N)C(=O)N[C@@H](CCN)C(=O)N[C@@H]([C@@H](C)O)C(=O)N[C@H](CCN)C(=O)N[C@@H](CCCCN)C(=O)N[C@H](C(=O)N[C@@H](CCN)C(=O)N[C@@H](CCCNC(=N)N)C(=O)N[C@@H](Cc2ccc(O)cc2)C(=O)O)CSSC1(C)C [Example 159] (HELM PEPTIDE1{V.[Hyp].I.K.Y.[Pen].N.R.[Dab].T.[NCC[C@@H](N[*:1])C(=O)[*:2]].K.C.[Dab].R.Y}$PEPTIDE1,PEPTIDE1,6:R3-13:R3$$$V2.0) | 0.125 | 0.25 | 0.5 | 0 | –
3 | CC[C@H](C)[C@H](NC(=O)[C@@H](NC(=O)[C@@H]1CCCN1C(=O)[C@@H](NC(=O)CN(C)C(=O)CNC(=O)[C@@H](N)CCCCN)C(C)C)[C@@H](C)CC)C(=O)N[C@@H](Cc1ccc(O)cc1)C(=O)N[C@@H]1C(=O)N[C@@H](CC(N)=O)C(=O)N[C@@H](CCCNC(=N)N)C(=O)N[C@@H](CCN)C(=O)N[C@@H]([C@@H](C)O)C(=O)N[C@H](CCN)C(=O)N[C@@H](CCCCN)C(=O)N[C@H](C(=O)N[C@@H](CCN)C(=O)N[C@@H](CCCNC(=N)N)C(=O)N[C@@H](Cc2ccc(O)cc2)C(=O)O)CSSC1(C)C [Example 94, Lys-Gly-Sar-Val-Pro-Ile-Ile-Tyr-Pen-Asn-Arg-Dab-Thr-^DDab-Lys-Cys-Dab-Arg-Tyr] (HELM PEPTIDE1{K.G.[Sar].V.P.I.I.Y.[Pen].N.R.[Dab].T.[NCC[C@@H](N[*:1])C(=O)[*:2]].K.C.[Dab].R.Y}$PEPTIDE1,PEPTIDE1,9:R3-16:R3$$$V2.0) | 0.125 | – | 0.125 | 0 | ≤0.03125
4 | CC[C@H](C)[C@H](NC(=O)[C@@H]1C[C@@H](N)CN1C(=O)[C@@H](NC(=O)[C@@H]1C[C@@H](O)CN1C(=N)N)C(C)C)C(=O)N[C@H](C(=O)N[C@@H](Cc1ccc(O)cc1)C(=O)N[C@@H]1C(=O)N[C@@H](CC(N)=O)C(=O)N[C@@H](CCCNC(=N)N)C(=O)N[C@@H](CCN)C(=O)N[C@@H]([C@@H](C)O)C(=O)N[C@H](CCN)C(=O)N[C@@H](CCCCN)C(=O)N[C@H](C(=O)N[C@@H](CCN)C(=O)N[C@@H](CCCNC(=N)N)C(=O)N[C@@H](Cc2ccc(O)cc2)C(=O)O)CSSC1(C)C)[C@@H](C)O [Example 36, Gua-Hyp-Val-Pro((4R)NH2)-Ile-Thr-Tyr-Pen-Asn-Arg-^Dab-Thr-^DDab-Lys-Cys-Dab-Arg-Tyr] (X2-V[Pro(4R-NH2)]ITY[Pen]NR[Dab]T[dDab]KC[Dab]RY-OH; disulfide 6-13) | 0.125 | – | 0.125 | 0 | 0.0625
5 | CC[C@H](C)[C@H](NC(=O)[C@@H]1C[C@@H](O)CN1C(=O)[C@@H](NC(=O)[C@@H]1C[C@@H](O)CN1C(=O)[C@@H](N)CCCCN)C(C)C)C(=O)N[C@H](C(=O)N[C@@H](Cc1ccc(O)cc1)C(=O)N[C@@H]1C(=O)N[C@@H](CC(N)=O)C(=O)N[C@@H](CCCNC(=N)N)C(=O)N[C@@H](CCN)C(=O)N[C@@H]([C@@H](C)O)C(=O)N[C@H](CCN)C(=O)N[C@@H](CCCCN)C(=O)N[C@H](C(=O)N[C@@H](CCN)C(=O)N[C@@H](CCCNC(=N)N)C(=O)N[C@@H](Cc2ccc(O)cc2)C(=O)O)CSSC1(C)C)[C@@H](C)O [Example 41, Lys-Hyp-Val-Hyp-Ile-Thr-Tyr-Pen-Asn-Arg-Dab-Thr-^DDab-Lys-Cys-Dab-Arg-Tyr] (HELM PEPTIDE1{K.[Hyp].V.[Hyp].I.T.Y.[Pen].N.R.[Dab].T.[NCC[C@@H](N[*:1])C(=O)[*:2]].K.C.[Dab].R.Y}$PEPTIDE1,PEPTIDE1,8:R3-15:R3$$$V2.0) | 0.125 | – | 0.25 | 0 | 0.0625
6 | CC[C@H](C)[C@H](NC(=O)[C@@H]1C[C@@H](N)CN1C(=O)[C@@H](NC(=O)[C@@H]1C[C@@H](O)CN1C(=O)CNCCCN)C(C)C)C(=O)N[C@H](C(=O)N[C@@H](Cc1ccc(O)cc1)C(=O)N[C@@H]1C(=O)N[C@@H](CC(N)=O)C(=O)N[C@@H](CCCNC(=N)N)C(=O)N[C@@H](CCN)C(=O)N[C@@H]([C@@H](C)O)C(=O)N[C@H](CCN)C(=O)N[C@@H](CCCCN)C(=O)N[C@H](C(=O)N[C@@H](Cc2ccc(O)cc2)C(=O)N[C@@H](CCCNC(=N)N)C(=O)N[C@@H](Cc2ccc(O)cc2)C(=O)O)CSSC1(C)C)[C@@H](C)O [Example 58, Norn-Hyp-Val-Pro((4R)NH2)-Ile-Thr-Tyr-Pen-Asn-Arg-Dab-Thr-^DDab-Lys-Cys-Tyr-Arg-Tyr] (H-[Gly(N(CH2)3NH2)][Hyp]V[Pro(4R-NH2)]ITY[Pen]NR[Dab]T[dDab]KCYRY-OH; disulfide 8-15) | 0.25 | – | 0.25 | 0 | 0.125
7 | CC[C@H](C)[C@H](NC(=O)[C@@H]1C[C@@H](O)CN1C(=O)[C@@H](NC(=O)[C@@H]1C[C@@H](O)CN1C(=N)N)C(C)C)C(=O)N[C@H](C(=O)N[C@@H](Cc1ccc(O)cc1)C(=O)N[C@@H]1C(=O)N[C@@H](CC(N)=O)C(=O)N[C@@H](CCCNC(=N)N)C(=O)N[C@@H](CCN)C(=O)N[C@@H]([C@@H](C)O)C(=O)N[C@H](CCN)C(=O)N[C@@H](CCCCN)C(=O)N[C@H](C(=O)N[C@@H](CCN)C(=O)N[C@@H](CCCNC(=N)N)C(=O)N[C@@H](Cc2ccc(O)cc2)C(=O)O)CSSC1(C)C)[C@@H](C)O [Example 35, Gua-Hyp-Val-Hyp-Ile-Thr-Tyr-Pen-Asn-Arg-Dab-Thr-^DDab-Lys-Cys-Dab-Arg-Tyr] (HELM PEPTIDE1{[N=C(N)N1C[C@H](O)C[C@H]1C(=O)[*:2]].V.[Hyp].I.T.Y.[Pen].N.R.[Dab].T.[NCC[C@@H](N[*:1])C(=O)[*:2]].K.C.[Dab].R.Y}$PEPTIDE1,PEPTIDE1,7:R3-14:R3$$$V2.0) | 0.125 | – | 0.25 | 0 | 0.125
8 | CC[C@H](C)[C@H](NC(=O)[C@@H]1C[C@@H](O)CN1C(=O)[C@@H](N)C(C)C)C(=O)N[C@H](C(=O)N[C@@H](Cc1ccc(O)cc1)C(=O)N[C@@H]1C(=O)N[C@@H](CO)C(=O)N[C@@H](CCCNC(=N)N)C(=O)N[C@@H](CCN)C(=O)N[C@@H]([C@@H](C)O)C(=O)N[C@H](CCN)C(=O)N[C@@H](CCCCN)C(=O)N[C@H](C(=O)N[C@@H](CCN)C(=O)N[C@@H](CCCNC(=N)N)C(=O)N[C@@H](Cc2ccc(O)cc2)C(=O)O)CSSC1(C)C)[C@@H](C)O [Example 164] (HELM PEPTIDE1{V.[Hyp].I.T.Y.[Pen].S.R.[Dab].T.[NCC[C@@H](N[*:1])C(=O)[*:2]].K.C.[Dab].R.Y}$PEPTIDE1,PEPTIDE1,6:R3-13:R3$$$V2.0) | 0.125 | 0.25 | 0.25 | 0 | –
9 | CCCC[C@H](NC(=O)[C@H](CCCNC(=N)N)NC(=O)[C@H](CCCNC(=N)N)NC(=O)[C@@H]1CSSC[C@H](NC(=O)[C@H](Cc2ccc(O)cc2)NC(=O)[C@@H](NC(=O)[C@@H](NC(=O)[C@@H]2CCCN2C(=O)[C@@H](NC(=O)[C@@H]2CCCN2C(=O)[C@H](CCCCN)NC(=O)[C@@H](N)CCCCN)C(C)C)[C@@H](C)CC)[C@@H](C)CC)C(=O)N[C@@H](CC(N)=O)C(=O)N[C@@H](CCCNC(=N)N)C(=O)N[C@@H](CCN)C(=O)N[C@@H]([C@@H](C)O)C(=O)N[C@H](CCN)C(=O)N[C@@H](CCCCN)C(=O)N1)C(=O)O [Example 68] (HELM PEPTIDE1{K.K.P.V.P.I.I.Y.C.N.R.[Dab].T.[NCC[C@@H](N[*:1])C(=O)[*:2]].K.C.R.R.[Nle]}$PEPTIDE1,PEPTIDE1,9:R3-16:R3$$$V2.0) | 0.03125 | – | ≤0.125 | 0 | 0.0625
